The values that follow come from paper PMC7256847 (Polish Journal of Microbiology, 2019).

Where two headings read alike, the source gives them in different places.

Data set [1] addresses T1, alanine racemase (SiAlr) (Streptococcus iniae, UniProt A0A3L8GG59).
T1 sequence (A0A3L8GG59 1-368): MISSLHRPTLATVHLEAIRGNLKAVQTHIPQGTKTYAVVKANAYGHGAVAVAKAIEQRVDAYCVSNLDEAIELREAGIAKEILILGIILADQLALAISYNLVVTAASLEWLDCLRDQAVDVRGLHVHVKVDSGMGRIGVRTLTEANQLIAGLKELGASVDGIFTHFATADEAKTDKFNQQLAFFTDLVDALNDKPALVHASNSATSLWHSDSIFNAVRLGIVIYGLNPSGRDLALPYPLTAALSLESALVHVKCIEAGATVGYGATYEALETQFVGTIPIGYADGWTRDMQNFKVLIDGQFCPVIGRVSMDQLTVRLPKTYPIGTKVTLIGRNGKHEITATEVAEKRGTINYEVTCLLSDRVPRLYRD
Description: enzyme inhibition assay with purified recombinant SiAlr. Format: biochemical.

Data set [2] deals with T1, alanine racemase (SiAlr). The description is as above. Format: biochemical. The source holds these as a separate data set.
Substrate in data set [3]: C[C@H](N)C(=O)O
Briefly: HPLC racemization kinetics. Type of data set: biochemical, Streptococcus iniae. As to conditions: pyridoxal […]'-phosphate (PLP).

Substrate in data set [4]: C[C@@H](N)C(=O)O
Briefly: HPLC racemization kinetics. Type of data set: biochemical, Streptococcus iniae. As to conditions: pyridoxal […]'-phosphate (PLP).

On to `O=C(O)Cc1cc(O)ccc1O` [homogentisic acid], for which the IC50 (usually the concentration that gives 50% inhibition) at alanine racemase (SiAlr) [1] stood at 12.3 µM.

For `Oc1ccc(O)cc1` [hydroquinone], on alanine racemase (SiAlr) [1], the IC50 was 11.4 µM.

Regarding `N[C@@H]1CON=C1O` [D-cycloserine], the IC50 at alanine racemase (SiAlr) [2] amounted to 3.69 µM.

B1: alanine racemase (SiAlr) (Streptococcus iniae) (protein)
chain: T1 sequence (A0A3L8GG59 1-368)
Consider B1, for which the Michaelis-Menten constant (Km) – broadly, the substrate concentration at which the rate is half of its maximum – came to 33.11 mM in data set [3] and 14.36 mM in data set [4].
